The structures appear in SMILES notation. Bounds are passed on as bounds.

The record followed here is ChEMBL document CHEMBL5584309, “Discovery of Novel Mcl-1 Inhibitors with a 3-Substituted-1H-indole-1-yl Moiety Binding to the P1-P3 Pockets to Induce Apoptosis in Acute Myeloid Leukemia Cells” (J Med Chem, 2024).

Series [1] in a line: Metabolic stability in rat liver microsomes assessed as half life by LC-MS/MS analysis. The settings on record: liver microsomes. It is filed as ADME, Microsome.
Series [2] addresses Apoptosis regulator Bcl-2 (Homo sapiens, UniProt P10415). Put plainly: Binding affinity to Bcl-2 (unknown origin) pre-incubated for 30 mins followed by addition FAM-peptide further incubated for 20 mins by fluorescence polarization-based binding assay. For orientation: Polarisation of emitted light reports the rotation of a fluorescent probe.
For a further series, the target named is Bcl-2-like protein 1 (Homo sapiens, UniProt Q07817). In words: Binding affinity to Bcl-xL (unknown origin) pre-incubated for 30 mins followed by addition FAM-peptide further incubated for 20 mins by fluorescence polarization-based binding assay.
Another series addresses T1, Bcl-2-related protein A1 (Homo sapiens, UniProt Q16548).
T1 sequence (Q16548 whole entry): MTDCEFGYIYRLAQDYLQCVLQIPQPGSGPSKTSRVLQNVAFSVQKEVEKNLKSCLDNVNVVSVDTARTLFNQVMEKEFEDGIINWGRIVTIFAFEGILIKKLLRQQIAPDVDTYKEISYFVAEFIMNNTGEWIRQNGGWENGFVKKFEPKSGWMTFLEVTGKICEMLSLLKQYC
Put plainly: Binding affinity to Bfl-1 (unknown origin) pre-incubated for 30 mins followed by addition FAM-peptide further incubated for 20 mins by fluorescence polarization-based binding assay.

In another series the test system is HL-60. In words: Antiproliferative activity against human HL-60 cells assessed as growth inhibition measured after 72 hrs by CCK-8 assay. The settings on record: HL-60, 72 h. It is filed as functional, cell-based. A general note: Tetrazolium assays rely on reduction of a dye to a coloured formazan, in cell work by metabolically active cells.
Series [3] deals with T2, Induced myeloid leukemia cell differentiation protein Mcl-1 (Homo sapiens, UniProt Q07820). Put plainly: Binding affinity to Mcl-1 (unknown origin) pre-incubated for 30 mins followed by addition FAM-peptide further incubated for 20 mins by fluorescence polarization-based binding assay. The settings on record: read-out: Ki.
The target of series [4] is T2, Induced myeloid leukemia cell differentiation protein Mcl-1. Put plainly: Binding affinity to human MCL-1 measured by competition against fluorescently labelled BH3 - Bid measured after 6 hrs by fluorescent polarization assay.

T2 sequence (Q07820 whole entry): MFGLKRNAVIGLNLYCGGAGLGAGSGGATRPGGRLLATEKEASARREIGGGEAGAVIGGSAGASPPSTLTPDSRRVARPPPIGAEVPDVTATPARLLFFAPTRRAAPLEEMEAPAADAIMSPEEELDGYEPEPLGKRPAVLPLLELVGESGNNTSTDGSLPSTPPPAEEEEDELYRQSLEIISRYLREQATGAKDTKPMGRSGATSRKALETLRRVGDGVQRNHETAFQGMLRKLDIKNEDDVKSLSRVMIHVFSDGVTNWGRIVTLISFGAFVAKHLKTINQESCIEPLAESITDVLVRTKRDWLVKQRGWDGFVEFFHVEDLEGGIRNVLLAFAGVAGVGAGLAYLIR
Chain of Apoptosis regulator Bcl-2 (P10415 whole entry): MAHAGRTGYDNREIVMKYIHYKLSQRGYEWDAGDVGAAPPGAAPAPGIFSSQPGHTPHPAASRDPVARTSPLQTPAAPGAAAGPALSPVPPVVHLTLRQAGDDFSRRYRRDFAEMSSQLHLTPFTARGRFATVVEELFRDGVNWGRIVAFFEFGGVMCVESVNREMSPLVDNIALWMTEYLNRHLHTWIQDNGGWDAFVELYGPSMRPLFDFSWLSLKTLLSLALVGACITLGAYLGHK
Chain of Bcl-2-like protein 1 (Q07817 whole entry): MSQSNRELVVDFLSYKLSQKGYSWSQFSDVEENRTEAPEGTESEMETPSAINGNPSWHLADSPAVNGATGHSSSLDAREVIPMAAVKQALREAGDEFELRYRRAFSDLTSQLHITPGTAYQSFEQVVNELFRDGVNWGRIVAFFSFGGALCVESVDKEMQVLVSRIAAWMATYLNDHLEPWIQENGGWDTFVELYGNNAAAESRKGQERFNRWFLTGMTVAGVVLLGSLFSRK

In the case of `O=C(O)Cc1ccccc1Nc1c(Cl)cccc1Cl` [DICLOFENAC], the half-life in series [1] came out at 11.7 min.

`Cc1cc(OCCCc2c(C(=O)O)n(CCN3CCOCC3)c3c(-c4ccccc4Cn4cc(CCNC(=O)c5ccc(F)cc5)c5ccccc54)cccc23)cc(C)c1Cl`: the half-maximal inhibitory concentration (IC50) in series [2] is over 100 µM; on Bcl-2-like protein 1, over 100 µM; at Bcl-2-related protein A1, over 10 µM; with HL-60 it was 7.96 µM. In addition, the Ki in series [3] came out at 0.037 µM.

Consider `Cc1cc(OCCCc2c(C(=O)O)n(CCN3CCOCC3)c3c(-c4ccccc4Cn4cc(CCNC(=O)c5ccc(OC(F)(F)F)cc5)c5ccccc54)cccc23)cc(C)c1Cl`, for which the IC50 in series [2] was over 100 µM; on Bcl-2-like protein 1 it was over 100 µM; on Bcl-2-related protein A1 it was over 10 µM; with HL-60 it was 7.92 µM. Further, in series [3], the Ki came to 0.029 µM.

`CC(C)=CCC[C@]1(C)C=Cc2c(O)c3c(c(CC=C(C)C)c2O1)O[C@]12C(=C[C@@H]4C[C@H]1C(C)(C)O[C@@]2(C/C=C(/C)C(=O)O)C4=O)C3=O` [GAMBOGIC ACID]: the concentration for half-maximal inhibition (IC50) in series [2] was 0.16 µM; at Bcl-2-like protein 1, 0.5 µM; on Bcl-2-related protein A1 it was 0.5 µM.

With `Cc1cc(OCCCc2c(C(=O)O)n(CCN3CCOCC3)c3c(-c4ccccc4Cn4cc(CCNC(=O)c5ccc(Cl)cc5)c5ccccc54)cccc23)cc(C)c1Cl`, the 50% inhibitory concentration (IC50) in series [2] was over 100 µM; on Bcl-2-like protein 1, over 100 µM; at Bcl-2-related protein A1 it was over 10 µM; in the series with HL-60, 7.58 µM. Further, in series [3], the Ki is 0.045 µM.

`CC1(C)CC[C@@H](OC(=O)/C=C/c2ccccc2)C2C(C=O)C(C=O)C[C@H](O)[C@H]21` (stereo partly drawn) had a Ki in series [4] of 0.3 µM.

Take `Cc1cc(OCCCc2c(C(=O)O)[nH]c3c(-c4ccccc4CN(C)c4ccccc4)cccc23)cc(C)c1Cl`: in the series on HL-60, the IC50 turned out to be 31.9 µM. In series [3], the inhibition constant Ki worked out at 0.65 µM.

On to `COc1ccc2c(ccn2Cc2ccccc2-c2cccc3c(CCCOc4cc(C)c(Cl)c(C)c4)c(C(=O)O)n(CCN4CCOCC4)c23)c1`, for which the IC50 in the series on HL-60 is 16.1 µM. The Ki in series [3] came out at 0.15 µM.

As to `COc1ccc(OCc2c(-c3cccc4c(CCCOc5cc(C)c(Cl)c(C)c5)c(C(=O)O)[nH]c34)c(C(=O)NCC3CC3)nn2C)cc1`, the IC50 with HL-60 was determined as 30.5 µM. Further, the Ki in series [3] is 0.22 µM.

In the case of `COc1ccccc1OCc1c(-c2cccc3c(CCCOc4cc(C)c(Cl)c(C)c4)c(C(=O)O)[nH]c23)c(C(=O)NCC2CC2)nn1C`, the IC50 in the series with HL-60 amounted to 28.8 µM. Moreover, the Ki in series [3] came out at 0.24 µM.

What is called half-life is the time needed for the level to fall by half in the phase considered. One may read the IC50 as the midpoint of a concentration-inhibition curve. By Ki is commonly meant the equilibrium dissociation constant of an inhibitor or competing ligand from its target.
